According to PubChem BioAssay AID256 (DTP/NCI, 2004):
Values joined by “and” are separate entries in the source; they are usually repeats but may differ in a detail not shown here. Equal entries are not always repeated. Toxic doses and inconclusive results are not listed. How the source made its calls: active means survival T/C of 150% or more; inactive means T/C below 125% in these data.

Test system: CD2F1 mice, L1210 leukemia ip, survival T/C
Test: NCI In Vivo Anticancer Drug Screen. Data for tumor model L1210 Leukemia (intraperitoneal) in CD2F1 (CDF1) mice
Settings: endpoint: mean survival time, higher = longer survival
Procedure, shortened: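 Activity against a transplanted murine tumor was judged by comparing the compound group with a vehicle group. The outcome in the treated animals was divided by that in the controls.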

[1] = dose: 100.0 mg/kg/injection, schedule: Q04DX003 (ip), vehicle: saline with Tween-80
[2] = dose: 200.0 mg/kg/injection, schedule: Q04DX003 (ip), vehicle: saline with Tween-80
[3] = dose: 400.0 mg/kg/injection, schedule: Q04DX003 (ip), vehicle: saline with Tween-80

Measured: T/C

O=C1N=c2cc([N+](=O)[O-])c([N+](=O)[O-])cc2=N1
inactive: dose: 100.0 mg/kg/injection, schedule: Q01DX001 (ip), vehicle: saline with Tween-80 97 % of control | dose: 200.0 mg/kg/injection, schedule: Q01DX001 (ip), vehicle: saline with Tween-80 103 % of control | dose: 400.0 mg/kg/injection, schedule: Q01DX001 (ip), vehicle: saline with Tween-80 98 % of control

Cc1cn(CC(=O)C2(O)CCC3C4CCC5=CC(=O)CCC5(C)C4C(=O)CC32C)c(=O)[nH]c1=O (stereo not given)
inactive: dose: 12.5 mg/kg/injection, schedule: Q04DX003 (ip), vehicle: Klucel (hydroxypropylcellulose) (HPC) 94 % of control | dose: 25.0 mg/kg/injection, schedule: Q04DX003 (ip), vehicle: Klucel (hydroxypropylcellulose) (HPC) 105 % of control | dose: 50.0 mg/kg/injection, schedule: Q04DX003 (ip), vehicle: Klucel (hydroxypropylcellulose) (HPC) 94 % of control | dose: 100.0 mg/kg/injection, schedule: Q04DX003 (ip), vehicle: Klucel (hydroxypropylcellulose) (HPC) 94 % of control | dose: 200.0 mg/kg/injection, schedule: Q04DX003 (ip), vehicle: Klucel (hydroxypropylcellulose) (HPC) 94 % of control

O=S(=O)(O)c1ccccc1O
inactive: dose: 100.0 mg/kg/injection, schedule: Q01DX009 (ip), vehicle: saline 101 % of control

CN(C)C(=C1C=CC=C1)N(C)C
inactive: dose: 75.0 mg/kg/injection, schedule: Q01DX001 (ip), vehicle: saline 95 % of control

O=C(N/N=C\c1cc(Cl)ccc1[N+](=O)[O-])c1ccccc1
inactive: dose: 100.0 mg/kg/injection, schedule: Q01DX009 (ip), vehicle: Klucel (hydroxypropylcellulose) (HPC) 100 % of control | dose: 200.0 mg/kg/injection, schedule: Q01DX009 (ip), vehicle: Klucel (hydroxypropylcellulose) (HPC) 91 % of control | dose: 400.0 mg/kg/injection, schedule: Q01DX009 (ip), vehicle: Klucel (hydroxypropylcellulose) (HPC) 94 % of control

CN1NC(c2ccccc2)C2CN(C3CCCCC3)C(=O)C21O (stereo not given)
inactive: [1] 92 % of control | [2] 88 % of control | [3] 101 % of control

[CH3][Sn]([CH3])([Br])[CH2]CCBr
inactive: dose: 0.39 mg/kg/injection, schedule: Q01DX009 (ip), vehicle: saline with Tween-80 100 % of control | dose: 0.39 mg/kg/injection, schedule: Q01DX009 (ip), vehicle: saline 90 % of control | dose: 0.78 mg/kg/injection, schedule: Q01DX009 (ip), vehicle: saline with Tween-80 100 % of control | dose: 0.78 mg/kg/injection, schedule: Q01DX009 (ip), vehicle: saline 90 % of control | dose: 1.56 mg/kg/injection, schedule: Q01DX009 (ip), vehicle: saline 97 % of control

O=[N+]([O-])C1CC=CCC1C(Cl)(Cl)Cl (stereo not given)
inactive: dose: 5.0 mg/kg/injection, schedule: Q01DX009 (ip), vehicle: saline with Tween-80 97 % of control | dose: 10.0 mg/kg/injection, schedule: Q01DX009 (ip), vehicle: saline with Tween-80 103 % of control

CC1NC(C(=O)O)Cc2cc(O)c(O)cc21 (stereo not given)
inactive: [1] 102 % of control | [2] 98 % of control | [3] 100 % of control

C[n+]1cccc(C(=O)NCCc2c[nH]c3ccccc23)c1
inactive: dose: 18.75 mg/kg/injection, schedule: Q01DX009 (ip), vehicle: saline with Tween-80 92 % of control | dose: 37.5 mg/kg/injection, schedule: Q01DX009 (ip), vehicle: saline with Tween-80 93 % of control | dose: 37.5 mg/kg/injection, schedule: Q04DX003 (ip), vehicle: acetone 95 % of control | dose: 75.0 mg/kg/injection, schedule: Q01DX009 (ip), vehicle: saline with Tween-80 97 % of control | dose: 75.0 mg/kg/injection, schedule: Q04DX003 (ip), vehicle: acetone 95 % of control

CCCCCCCCCCCCCCCCOc1ccc(S(=O)(=O)NC2CCCCC2)cc1[N+](=O)[O-]
inactive: [1] 90 % of control | [2] 93 % of control | [3] 94 % of control

C1=CCOCOC1
inactive: dose: 12.5 mg/kg/injection, schedule: Q01DX009 (ip), vehicle: saline with Tween-80 106 % of control | dose: 25.0 mg/kg/injection, schedule: Q01DX009 (ip), vehicle: saline with Tween-80 96 % of control | dose: 50.0 mg/kg/injection, schedule: Q01DX009 (ip), vehicle: saline with Tween-80 114 % of control and 102 % of control | dose: 100.0 mg/kg/injection, schedule: Q01DX009 (ip), vehicle: saline with Tween-80 100 % of control and 103 % of control | [1] 100 % of control | dose: 200.0 mg/kg/injection, schedule: Q01DX009 (ip), vehicle: saline with Tween-80 106 % of control | [2] 118 % of control

ClCc1ccc(CCl)c(Cl)c1Cl
inactive: [1] 96 % of control

CC(=O)OCC1=C(COC(C)=O)C2OC1C(OC(C)=O)C2OC(C)=O (stereo not given)
inactive: dose: 100.0 mg/kg/injection, schedule: Q04DX002 (ip), vehicle: saline with Tween-80 102 % of control | dose: 200.0 mg/kg/injection, schedule: Q04DX002 (ip), vehicle: saline with Tween-80 98 % of control | dose: 400.0 mg/kg/injection, schedule: Q04DX002 (ip), vehicle: saline with Tween-80 94 % of control
